{"source": "paper PMC12346692", "about": "“SUL-150 Limits Vascular Remodeling and Ventricular Failure in Pulmonary Arterial Hypertension” (International Journal of Molecular Sciences, 2025)", "key": {"[1]": {"test": "SUL-150 levels in plasma, lung and right ventricle (LC-MS/MS)", "format": "in vivo, rat", "details": "for concentration at 4 weeks / concentration at 28 days: rat", "method": "The administration of vehicle and SUL-150 started 7 days post-monocrotaline injection and was performed by the i.p. implantation of osmotic minipumps (Alzet model #2004, Durect Corp., Cupertino, CA, USA) at the time of aortocaval shunt placement. The Lynch coil method was used to circumvent compatibility issues with the osmotic minipump reservoir as described previously. Vehicle (dimethyl sulfoxide (DMSO) or SUL-150 ((R)-(6-hydroxy-2,5,7,8-tetramethylchroman-2-yl)(piperazin-1-yl)methanone, 0.9 M in DMSO, Sulfateq BV, Groningen, The Netherlands) was administered at a flow rate of 0.25 µL·h^−1, accumulating to an approximate dose of 6 mg·kg^−1·day^−1 SUL-150 in a 300 g rat. Animals were weighed, watched for dyspnea, cyanosis, and oedema, and sacrificed preterm when a 15% weight loss or debilitating dyspnea occurred.\nMeasurement of SUL-150 levels in plasma and tissue homogenates was performed by liquid chromatography and mass spectrometry. Plasma or tissue homogenates were supplemented with acetonitrile and sonicated, followed by centrifugation at 14,000× g to liberate SUL-150 from the samples and pellet protein precipitates. Tissue samples were subjected to additional solid-phase extraction using an SPEStrata C-18 cartridge (100 mg, 55 µm, 70 Å, Phenomenex, Torrance, CA, USA), prepared with 1 mL methanol followed by 1 mL water. Analytes were washed by methanol (10%) and eluted in acetonitrile/methanol (3:7 v/v). Eluate was concentrated, and water (20%) was added. Analyte recovery was >95% for plasma samples and >70% for tissue. Liquid chromatography of the samples was performed on a 1260 Infinity HPLC device (Agilent Tech., Santa Clara, CA, USA) using a ZORBAX Eclipse AAA column (3.0 × 150 mm, particle size 3.5 µm) in a reversed-phase setup and a flow rate of 0.5 mL·min^−1 with gradient elution. Solvents consisted of methanol (6%)/acetonitrile (4%) acetate and methanol (54%)/acetonitrile (36%) in water with 0.1% ammonium for solvents A and B, respectively. MS/MS detection was performed on a QQQ 6460 mass spectrometer (Agilent Tech., Santa Clara, CA, USA). Detection was set for a quantifier ion (205.1, CE 25 V) and qualifier ion (190.1, CE 40 V). Gas temperature for MS was set to 300 °C and gas flow was set to 6 L·min^−1. Quantification of the samples was performed using an external standard for calibration. LOD and LOQ were 5 pg·mL^−1 and 17 pg·mL^−1, respectively."}, "[2]": {"test_system": "PAH rats", "test": "Heart weights and Fulton index at sacrifice", "format": "in vivo, rat", "details": "~6 mg·kg^−1·day^−1 i.p. minipump, 28 days", "method": "Rats were euthanized under 3–5% isoflurane anesthesia by exsanguination by aorta puncture. Hearts, lungs, and pulmonary arteries were harvested and processed for further analyses. The hearts were weighed and dissected into the left atrium, ventricle, right atrium, and ventricle and septum, which were all individually weighted. The Fulton Index was calculated as: Fulton Index=RV/(LV+IVS) , wherein RV and LV are right and left ventricular weights, respectively, and IVS is the weight of the interventricular septum. The right ventricle was cut in half, and one half was fixed in 3.6% formalin and embedded in paraffin. The other half was snap frozen in liquid nitrogen. The left lung lobe was fixed by filling the airways with 3.6% formalin and embedded in paraffin. The right lung lobe was snap frozen in liquid nitrogen."}, "[3]": {"test_system": "α1-adrenoceptor", "parameters": "method as in PMID 30626882", "details": "no test in this paper; α1 antagonism attributed; cited from earlier work"}, "[4]": {"details": "individual PAH rats at sacrifice, ~6 mg·kg^−1·day^−1 i.p. minipump"}, "[5]": {"details": "plasma, ip, 6 mg·kg^−1·day^−1, mean of PAH rats at sacrifice, ~6 mg·kg^−1·day^−1 i.p. minipump, read-out: mean concentration of SUL-150 in blood plasma"}}, "note": "Values joined by “and” are separate entries in the source; they are usually repeats but may differ in a detail not shown here. Equal entries are not always repeated. Where two headings read alike, the source gives them in different places. Marks after values point to notes of the source that are not given here."}
{"smiles": "Cc1c(C)c2c(c(C)c1O)CC[C@](C)(C(=O)N1CCNCC1)O2", "note": "[SUL-150, (R)-(6-hydroxy-2,5,7,8-tetramethylchroman-2-yl)(piperazin-1-yl)methanone]", "values": [{"measurement": "SUL-150 concentration, Lung Tissue", "setting": "[1]; [4]", "result": "35.56 pg/mg and 10.21 pg/mg and 14.26 pg/mg and 25.74 pg/mg and 26.09 pg/mg and 53.94 pg/mg"}, {"measurement": "SUL-150 concentration, Plasma", "setting": "[1]; [4]", "result": "93.16 ng/mL and 3.31 ng/mL and 18.36 ng/mL and 4.42 ng/mL and 18.81 ng/mL and 43.90 ng/mL"}, {"measurement": "SUL-150 concentration, Right Ventricle", "setting": "[1]; [4]", "result": "13.49 pg/mg and 29.91 pg/mg and 23.67 pg/mg and 16.80 pg/mg and 21.76 pg/mg and 143.68 pg/mg"}, {"measurement": "concentration at 4 weeks", "setting": "[1]; lung, ip, 6 mg·kg^−1·day^−1, mean of PAH rats at sacrifice, ~6 mg·kg^−1·day^−1 i.p. minipump, read-out: mean concentration of SUL-150 in lung", "result": "27.6 ± 15.8", "unit": "ng/g"}, {"measurement": "concentration at 28 days", "setting": "[1]; plasma, intraperitoneal, 6 mg·kg^−1·day^−1, range over PAH rats at sacrifice, read-out: plasma level of SUL-150, range", "result": "3.3 to 93.2", "unit": "ng/mL"}, {"measurement": "concentration at 4 weeks", "setting": "[1]; [5]", "result": "30.3 ± 34.1", "unit": "ng/mL"}, {"measurement": "concentration at 28 days", "setting": "[1]; [5]", "result": 30.3, "unit": "ng/mL"}, {"measurement": "concentration at 4 weeks", "setting": "[1]; right ventricle, ip, 6 mg·kg^−1·day^−1, mean of PAH rats at sacrifice, ~6 mg·kg^−1·day^−1 i.p. minipump, read-out: mean concentration of SUL-150 in right ventricle", "result": "41.5 ± 50.4", "unit": "ng/g"}, {"measurement": "Heart weight (relative to body weight)", "setting": "[2]", "result": "4.37 ± 0.66 ^a mg·g^−1"}, {"measurement": "IVS weight (relative to body weight)", "setting": "[2]", "result": "0.81 ± 0.22", "unit": "mg/g"}, {"measurement": "LA weight (relative to body weight)", "setting": "[2]", "result": "0.23 ± 0.11 ^a mg·g^−1"}, {"measurement": "LV weight (relative to body weight)", "setting": "[2]", "result": "1.60 ± 0.29 ^a mg·g^−1"}, {"measurement": "RA weight (relative to body weight)", "setting": "[2]", "result": "0.38 ± 0.12 ^a mg·g^−1"}, {"measurement": "RV weight (relative to body weight)", "setting": "[2]", "result": "1.23 ± 0.31 ^a mg·g^−1"}, {"measurement": "Fulton Index", "setting": "[2]; RV/(LV+IVS)", "result": "0.51 ± 0.09 ^a"}, {"measurement": "pA2 as an α1-adrenoceptor antagonist", "setting": "[3]", "result": "≈ 5.4"}]}
